Reference: patent publication US4708871A, “Antigenically active amino acid sequences” (priority 1983, dated 1987)
Several values for one entry are separate records, joined by “and”; a condition that tells them apart may be missing. Equal values may be shown once. No end group written: not given here.

Tested on: antiserum known to react with the original sequence (FMDV Type A10)
Type: binding, rabbit

Q: GDLGSI [GDLGSI] was tested. Which “Antibody-binding activity, percentage of the mean activity of the six parent sequences” value did it give?
A: Its value is 105 percentage and 118 percentage and 88 percentage and 98 percentage and 85 percentage and 106 percentage.
